Laboratory results taken from patent EP0443598A2, “Peptides inhibiting the blood coagulation, their process of preparation and their use” (BEHRINGWERKE Aktiengesellschaft, priority 1990, dated 1991).

Test system: Standard Humanplasma
Assay: partial thromboplastin time (PTT) test
Format: biochemical, Human
Settings: blank without peptide 38.8
Protocol: 10 mg des Peptids wurden in 1 ml Puffer (20 mM Tris, 150 mM NaCl pH 7.5) gelöst. Das Peptid wurde in der partiellen Thromboplastinzeit (PTT) gegenüber einem Peptid mit derselben Sequenz getestet, das anstelle von Phe(SO₃ H) jedoch Tyr enthielt.
100 Mikroliter Standard Humanplasma 100 Mikroliter Puffer (s.o.) 100 Mikroliter Kaolin/Pathromtin Reagenz (BEHRINGWERKE AG) 2 Minuten bei 37°C 100 Mikroliter CaCl₂-Lösung

[1] = Verdünnung 1:4 of peptide solution 10 mg in 1 ml buffer (20 mM Tris, 150 mM NaCl pH 7.5)
[2] = Verdünnung 1:8 of peptide solution 10 mg in 1 ml buffer
[3] = Verdünnung 1:16 of peptide solution 10 mg in 1 ml buffer
[4] = Verdünnung 1:32 of peptide solution 10 mg in 1 ml buffer
[5] = Verdünnung 1:64 of peptide solution 10 mg in 1 ml buffer
[6] = Verdünnung 1:128 of peptide solution 10 mg in 1 ml buffer
[7] = Verdünnung 1:256 of peptide solution 10 mg in 1 ml buffer
[8] = Verdünnung 1:512 of peptide solution 10 mg in 1 ml buffer
[9] = Verdünnung 1:1024 of peptide solution 10 mg in 1 ml buffer

Substance | Gerinnungszeiten in Sekunden [1] [Sekunden] | Gerinnungszeiten in Sekunden [2] [Sekunden] | Gerinnungszeiten in Sekunden [3] [Sekunden] | Gerinnungszeiten in Sekunden [4] [Sekunden] | Gerinnungszeiten in Sekunden [5] [Sekunden] | Gerinnungszeiten in Sekunden [6] [Sekunden] | Gerinnungszeiten in Sekunden [7] [Sekunden] | Gerinnungszeiten in Sekunden [8] [Sekunden] | Gerinnungszeiten in Sekunden [9] [Sekunden]
Asn-Gly-Asp-Phe-Glu-Glu-Ile-Pro-Glu-Glu-Tyr-Leu-OH (NGDFEEIPEEYL; printed: Asn-Gly-Asp-Phe-Glu-Glu-Ile-Pro-Glu-Glu-Tyr-Leu-) [Peptid mit Tyr] | 105.2 | 80.5 | 71.0 | 65.0 | 57.7 | 52.8 | 47.3 | 44.7 | 41.7
Asn-Gly-Asp-Phe-Glu-Glu-Ile-Pro-Glu-Glu-Phe(SO₃H)-Leu-OH [Peptid lt. Beispiel] | 147.2 | 111.8 | 89.2 | 81.5 | 72.8 | 63.0 | 56.3 | 52.2 | 46.8
